“And” between values parts separate entries of the source, which are not always exact repeats. Equal entries are not always repeated.

Assay [1] deals with ferri-Exochelin 758SM. Put plainly: Capacity to remove iron from a different Exochelin species (Ferri-Exochelin 758SM). The assay is classed as binding. Particulars: for % Iron-Saturation 0 h / % of Calculated Iron-Saturation at Equilibrium 0 h / % of Calculated Iron-Saturation at Equilibrium 1 h / % Iron-Saturation 1 h: Table 1; for % Iron-Saturation 0 h / % Iron-Saturation 0 hour / % Iron-Saturation 1 hour / % Iron-Saturation 1 h: mixed with ferri-Exochelin 758SM. As for the experimental part:
C. Capacity to Remove Iron from a Different Exochelin Species. To assess the affinity of the synthetic desferri-Exochelin 772SM(R) for iron, its capacity to remove iron from a different Exochelin species, ferri-Exochelin 758SM, was evaluated. The capacity of synthetic and native desferri-Exochelin 772SM(R) to remove iron from ferri-Exochelin 758SM was also evaluated and compared. Either native or synthetic desferri-Exochelin 772SM(R) were independently mixed with ferri-Exochelin 758SM. The amount of iron acquired in 1 hour by the desferri-Exochelins was assayed by subjecting the Exochelin to reverse-phase HPLC on a phenyl column, as described above, and the area under the 450 nm absorbance peak was measured. The amount of iron-Exochelin was then calculated using a conversion factor derived from assaying known amounts of ferri-Exochelin 772SM(R).
C. Capacity to Remove Iron from a Different Exochelin Species. To assess the affinity of the synthetic desferri-Exochelin 772SM(S) for iron, its capacity to remove iron from a different exochelin species, ferri-Exochelin 758SM was evaluated. The capacity of synthetic desferri-Exochelin 772SM(S) and native desferri-Exochelin 772SM(R) to remove iron from ferri-Exochelin 758SM was also evaluated and compared. Either synthetic desferri-Exochelin 772SM(S) or native desferri-Exochelin 772SM(R) was mixed with ferri-Exochelin 758SM. The amount of iron acquired by the desferri-exochelins after 1 hour was assayed by subjecting the molecule to reverse-phase HPLC on a phenyl column, as described above, and the area under the 450 nm absorbance peak was measured. The amount of iron-exochelin was then calculated using a conversion factor derived from assaying known amounts of ferri-Exochelin 772SM(R) and ferri-Exochelin 772SM(S).

Assay [2] concerns ferri-Exochelin 758SM. Briefly: Capacity to remove iron from Ferri-Exochelin 758SM in the same vial (772SM(R) vs 772SM(S)). The assay is classed as binding. As to conditions: Table 3, 772SM(R), 772SM(S) and 758SM in the same vial. Here is the method: To further assess the relative affinities of the stereoisomers desferri-Exochelin 772SM(R) and 772SM(S) for iron, their capacity to remove iron from a different exochelin species in the same vial were compared.
In the experiment,15.6 μg of 1.1% iron-saturated synthetic Exochelin 772SM(R) and 17.4 μg of 1.0% iron-saturated synthetic Exochelin 772SM(S) was mixed with 13.5 μg of 100% iron-saturated native Exochelin 758SM.

For assay [3], the target named is T1, 40% iron-saturated human transferrin (Homo sapiens, UniProt P02787). Put plainly: Capacity to remove iron from 40% iron-saturated human transferrin. The class given is biochemical. As to conditions: Fe3+:desferri-Exochelin 10:1, PBS pH 7.4. As for the experimental part: (§1) A. 40% Iron-Saturated Human Transferrin. To assess the capacity of the 3 different desferri-Exochelins to remove iron from 40% iron-saturated human transferrin, each of them was incubated for 1, 3, and 24 hours with 40% iron-saturated transferrin such that the ratio of Fe^3+: desferri-Exochelin equaled 10:1. The incubation was carried out in PBS, pH 7.4. Afterwards, the Exochelin and transferrin were separated from each other by centrifugation through a 10,000 dalton cut-off filter. The transferrin (mass 76,000 daltons) was completely excluded by this filter whereas 85% of the Exochelin (mass<1,000) was recovered in the filtrate. To determine the total amount of exochelin recovered, the exochelin in the filtrate was saturated with a 20:1 molar excess of ferric ammonium citrate and subjected to reverse-phase HPLC as described above. To determine the amount of iron-saturated Exochelin in the filtrate at each time point, the filtrate was subjected to reverse-phase HPLC without the addition of iron. The % iron-saturation was calculated as follows: [formula]
T1 sequence (P02787 20-698): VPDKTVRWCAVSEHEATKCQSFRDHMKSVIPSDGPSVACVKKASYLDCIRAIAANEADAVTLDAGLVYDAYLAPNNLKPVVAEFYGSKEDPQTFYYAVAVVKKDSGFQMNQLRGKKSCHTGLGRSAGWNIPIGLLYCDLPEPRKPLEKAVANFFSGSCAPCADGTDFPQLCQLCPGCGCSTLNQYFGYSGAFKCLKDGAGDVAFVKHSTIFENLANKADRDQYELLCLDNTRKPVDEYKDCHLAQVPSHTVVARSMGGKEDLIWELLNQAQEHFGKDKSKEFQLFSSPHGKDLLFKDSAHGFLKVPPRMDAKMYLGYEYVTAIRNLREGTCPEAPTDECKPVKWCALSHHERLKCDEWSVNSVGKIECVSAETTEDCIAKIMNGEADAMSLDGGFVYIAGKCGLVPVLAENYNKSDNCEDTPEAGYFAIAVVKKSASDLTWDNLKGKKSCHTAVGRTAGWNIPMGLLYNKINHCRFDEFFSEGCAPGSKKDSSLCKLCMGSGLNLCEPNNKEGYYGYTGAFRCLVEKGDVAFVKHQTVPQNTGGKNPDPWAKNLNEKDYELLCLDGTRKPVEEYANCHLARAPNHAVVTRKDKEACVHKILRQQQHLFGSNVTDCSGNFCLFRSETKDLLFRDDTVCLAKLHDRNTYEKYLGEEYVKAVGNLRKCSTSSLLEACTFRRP

For assay [4], the target named is holo-transferrin (92% iron-saturated human transferrin) (Homo sapiens, UniProt P02787). Put plainly: Capacity to remove iron from holo-transferrin (92% iron-saturated human transferrin). The assay is classed as biochemical. As to conditions: Fe3+:desferri-Exochelin 10:1. Here is the method: as §1
Chain of holo-transferrin (92% iron-saturated human transferrin) (P02787 20-698): as above
B. Holo-Transferrin (92% Iron-Saturated Human Transferrin). To assess the capacity of the 3 different desferri-Exochelins to remove iron from holo-transferrin (92% iron-saturated human transferring, each of them was incubated for 1, 3, and 24 h with 92% iron-saturated transferrin such that the ratio of Fe^3+: desferri-Exochelin equaled 10:1, as in the aforementioned study with 40% iron-saturated transferrin. The % iron-saturation of the Exochelins was assayed as above.

For assay [5], the target named is human apotransferrin (<0.7% iron-saturated) (Homo sapiens, UniProt P02787). Put plainly: Control incubation with human apotransferrin (<0.7% iron-saturated). The assay is classed as biochemical. As to conditions: apotransferrin 38 mg/ml. As for the experimental part: as §1
Chain of human apotransferrin (<0.7% iron-saturated) (P02787 20-698): as above
C. Apotransferrin (<0.7% Iron-Saturated Human Transferrin). As a control, the three desferri-exochelins were incubated for 3 h and 24 h with human apotransferrin (<0.7% iron-saturated) at a concentration of 38 mg/ml, the same concentration of protein as in the study utilizing 92% iron-saturated transferrin in B above. None of the desferri-exochelins acquired appreciable amounts of iron (Table 6).

Assay [6] concerns the target T1, 40% iron-saturated human transferrin. Put plainly: Capacity to remove iron from 40% iron-saturated human transferrin. The assay is classed as biochemical. As to conditions: Fe3+:desferri-Exochelin 10:1, PBS pH 7.4. This is another data set of the same source.
Setting [7] is: assuming comparable affinities for iron, 15.1 µg 772SM(R), Experiment I.
Setting [8] is: assuming comparable affinities for iron, 15.8 µg 772SM(R), Experiment II.
The mark [9] stands for this setting: listed as Native Desferri-Exochelin 772SM(R).
[10] abbreviates: listed as native desferri-exochelin 772SM(R).

With “Exochelin 758SM [Native 758SM, reference compound]”, the “% Iron-Saturation 0 h” value in the assay on ferri-Exochelin 758SM [1] was determined as 100%. The “% Iron-Saturation 0 hour” value is 100% in the assay with ferri-Exochelin 758SM [1] (Table 2, 0 hour) and 100% with ferri-Exochelin 758SM [2] (0 hour). For the same substance, the “% Iron-Saturation 1 hour” value with ferri-Exochelin 758SM [1] (Table 2, with native desferri-Exochelin 772SM(R)) turned out to be 61.7%; with ferri-Exochelin 758SM [1] (Table 2, with synthetic desferri-Exochelin 772SM(R)), 55.9%; in the assay with ferri-Exochelin 758SM [1] (Table 2, with synthetic desferri-Exochelin 772SM(S)), 54.1%; with ferri-Exochelin 758SM [2] (1 hour) it was 40.0%.

As to “Exochelin 772SM(R) [Native 772SM(R), reference compound]”, the “% of Calculated Iron-Saturation at Equilibrium 0 h” value in the assay with ferri-Exochelin 758SM [1] (setting [7]) is listed as 6.8%; with ferri-Exochelin 758SM [1] (setting [8]), 5.0%. For the same substance, the “% Iron-Saturation 0 h” value with ferri-Exochelin 758SM [1] came to 2.8%. Further, the “% of Calculated Iron-Saturation at Equilibrium 1 h” value with ferri-Exochelin 758SM [1] (setting [7]) is 85.8%; in the assay on ferri-Exochelin 758SM [1] (setting [8]), 81.6%; with ferri-Exochelin 758SM [1] (assuming comparable affinities for iron, listed as native Exochelin 772SM(R)), 85.8% and 81.6%. Further, the “% Iron-Saturation 1 h” value was 46.4% in the assay on ferri-Exochelin 758SM [1] (15.1 µg 772SM(R), Experiment I); 45.6% with ferri-Exochelin 758SM [1] (15.8 µg 772SM(R), Experiment II); 46.4% and 45.6% in the assay on ferri-Exochelin 758SM [1] (listed as native Exochelin 772SM(R)). Also, the “% of Calculated Iron-Saturation at Equilibrium 0 hour” value in the assay with ferri-Exochelin 758SM [1] (Table 2, 0 hour, assuming comparable affinities for iron) was 5.4%. Further, the “% Iron-Saturation 0 hour” value in the assay on ferri-Exochelin 758SM [1] (Table 2, 0 hour) stood at 2.8%. Besides, the “% of Calculated Iron-Saturation at Equilibrium 1 hour” value is on record as 88.7% in the assay with ferri-Exochelin 758SM [1] (Table 2, assuming comparable affinities for iron) and 88.7% in the assay with ferri-Exochelin 758SM [1] (Table 2, assuming comparable affinities for iron, listed as native Exochelin 772SM(R)). Further, in the assay with ferri-Exochelin 758SM [1] (Table 2), the “% Iron-Saturation 1 hour” value is on record as 46.2%. Also, the “Iron-Saturation 1 h” value was determined as 9.3% in assay [3] (1 h) and 11.6% in assay [4] (1 h). Besides, the “Iron-Saturation 3 h” value in assay [3] (3 h) is 13.8%; in assay [4] (3 h) it was 19.0%; in assay [5] (3 h), 9.3%. The “Iron-Saturation 24 h” value is on record as 34.0% in assay [3] (setting [9]); 34.0% in assay [3] (setting [10]); 54.1% in assay [4] (setting [9]); 54.1% in assay [4] (setting [10]); 6.8% in assay [5] (24 h). Besides, the “Iron-Saturation 0 h” value in assay [4] (0 h), in assay [5] (0 h) and in assay [6] was 2.8% throughout.

The values are drawn from patent US6335443B1, “Chemical synthesis of exochelins” (Keystone Biomedical, Inc., priority 1998, dated 2002).
